Reference: US20170056336A1, “CO-TARGETING ANDROGEN RECEPTOR SPLICE VARIANTS AND MTOR SIGNALING PATHWAY FOR THE TREATMENT OF CASTRATION-RESISTANT PROSTATE CANCER” (British Columbia Cancer Agency Branch, priority 2015, published 2017)
Each block holds one compound with its values, some of them ahead of it.

What was measured:
[1] = tested on: mTOR and AR pathways in LNCaP95 cells; assay: Western blot analysis of mTOR and AR pathways in LNCaP95 cells; format: cell-based, human; conditions: for expression of UBE2C / pS6 levels: enzalutamide 10 uM; for pS6 levels: regardless of androgen status; for BEZ-235-increased protein levels of FL-AR, AR-V7 and PSA: elevations caused by BEZ-235 15 nM, LNCaP95 and LNCaP cells
Protocol: Cells were harvested and whole-cell lysate (10 to 15 ug) was subjected to SDS-PAGE. Antibodies used were: AR (1:1000; Santa Cruz), AR-V7 (1:400; Precision), p110α (1:500; BD Bioscience), p110β (1:1000; abcam), […] (1:1000; abcam), p110δ (1:1000; abcam), UBE2C (Boston Biochem; 1:1000), PTEN (1:1000), pS6 (1:2000), pAktThr308 (1:1000), pAktSer473 (1:2000), p4EBP1 (1:1000), total-Akt (1:1000), total-S6 (1:1000), total-4EBP1 (1:1000), pERK/MAPK (1:1000), total-ERK/MAPK (1:1000) from Cell Signaling technology (Danvers, Mass.). β-actin (1:10,000, Abcam) was used as a loading control.
Protein levels of PSA were undetectable in LNCaP95 cells.

[2] = tested on: mTOR and AR pathways in parental LNCaP cells; assay: Western blot analysis of mTOR and AR pathways in parental LNCaP cells; format: cell-based, human; conditions: parental LNCaP cells, R1881 1 nM
[3] = target: T1, AR NTD (Homo sapiens, UniProt P10275); assay: AR NTD transactivation assay in LNCaP cells; format: cell-based; conditions: IL-6 50 ng/ml, 24 h
T1 sequence (P10275 1-558): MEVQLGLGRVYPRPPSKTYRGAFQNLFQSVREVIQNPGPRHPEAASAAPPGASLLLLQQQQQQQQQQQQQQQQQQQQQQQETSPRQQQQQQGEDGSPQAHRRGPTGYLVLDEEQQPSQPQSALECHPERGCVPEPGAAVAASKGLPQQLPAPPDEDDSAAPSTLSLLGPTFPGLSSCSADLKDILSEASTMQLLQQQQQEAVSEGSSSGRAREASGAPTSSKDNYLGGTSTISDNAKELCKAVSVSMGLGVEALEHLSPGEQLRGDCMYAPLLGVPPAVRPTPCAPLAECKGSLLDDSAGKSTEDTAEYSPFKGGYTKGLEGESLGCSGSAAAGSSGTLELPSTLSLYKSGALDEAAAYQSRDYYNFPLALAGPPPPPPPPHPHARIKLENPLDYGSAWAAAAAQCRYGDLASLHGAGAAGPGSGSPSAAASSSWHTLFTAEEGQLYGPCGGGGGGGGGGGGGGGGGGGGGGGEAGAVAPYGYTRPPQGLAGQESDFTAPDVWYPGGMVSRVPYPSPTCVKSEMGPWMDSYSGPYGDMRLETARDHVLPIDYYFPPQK
Protocol: Transactivation assays of the AR NTD were performed in LNCaP and LNCaP95 cells cotransfected with p5xGal4UAS-TATA-luciferase and AR NTD-Gal4DBD (FIG. 2D). […] LNCaP95 cells were harvested 24 h after the treatment of indicated compounds.
The AR NTD is essential for full transcriptional activities (Quayle, S. N. et. al., PNAS 2007, 104, 1331-1336). In LNCaP cells, transactivation of the AR NTD can be induced with IL-6 or by stimulation of the PKA pathway with FSK. In LNCaP95 cells, there is high intrinsic activity of the AR NTD which cannot be further induced by stimulation of these pathways.

[4] = tested on: genes regulated by FL-AR and AR-V7 in LNCaP95 cells; assay: Gene expression analysis (quantitative real-time RT-PCR) in LNCaP95 cells; format: cell-based, human
[5] = tested on: LNCaP95 cells; assay: Cell proliferation BrdU immunoassay; format: cell-based, human; conditions: R1881 0.1 nM, 48 h, serum-free, Compound A 25 uM, enzalutamide 10 uM, BEZ-235 15 nM, everolimus 10 nM
[6] = tested on: LNCaP95 xenografts; assay: Western blot analyses of protein lysates from xenografts; format: in vivo, mice
[7] = tested on: LNCaP95 xenografts; assay: Immunohistochemistry of harvested xenografts; format: in vivo, mice
[8] = target: T2, AR (Homo sapiens, UniProt P10275, T878A); assay: PSA-, ARR3-, PB-luciferase AR reporter assay in LNCaP95 cells; conditions: LNCaP95 cells treated with androgen and BEZ-235 15 nM
T2 sequence (P10275 1-920 T878A): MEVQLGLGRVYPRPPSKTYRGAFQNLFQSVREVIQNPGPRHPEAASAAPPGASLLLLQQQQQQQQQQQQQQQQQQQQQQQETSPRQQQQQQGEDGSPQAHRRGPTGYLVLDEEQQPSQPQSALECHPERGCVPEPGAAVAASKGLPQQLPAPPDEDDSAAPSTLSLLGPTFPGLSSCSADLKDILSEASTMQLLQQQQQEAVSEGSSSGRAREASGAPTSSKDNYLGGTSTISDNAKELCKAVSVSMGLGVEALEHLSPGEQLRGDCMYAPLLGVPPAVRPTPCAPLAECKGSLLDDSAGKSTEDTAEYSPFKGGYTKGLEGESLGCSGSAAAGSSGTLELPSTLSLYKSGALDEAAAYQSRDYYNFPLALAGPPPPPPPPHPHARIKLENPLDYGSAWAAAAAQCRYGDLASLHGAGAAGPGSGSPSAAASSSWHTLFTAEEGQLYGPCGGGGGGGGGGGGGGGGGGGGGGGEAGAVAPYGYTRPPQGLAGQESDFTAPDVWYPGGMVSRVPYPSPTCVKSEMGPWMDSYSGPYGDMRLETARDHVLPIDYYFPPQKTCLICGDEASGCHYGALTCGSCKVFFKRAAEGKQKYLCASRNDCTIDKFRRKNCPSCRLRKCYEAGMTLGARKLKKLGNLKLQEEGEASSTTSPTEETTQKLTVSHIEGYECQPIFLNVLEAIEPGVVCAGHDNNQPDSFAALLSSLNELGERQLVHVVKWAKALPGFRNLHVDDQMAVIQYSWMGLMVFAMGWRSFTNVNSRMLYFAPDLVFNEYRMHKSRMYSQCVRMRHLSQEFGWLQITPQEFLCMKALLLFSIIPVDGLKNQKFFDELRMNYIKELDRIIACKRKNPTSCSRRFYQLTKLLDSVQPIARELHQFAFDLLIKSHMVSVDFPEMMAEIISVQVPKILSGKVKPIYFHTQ

[9] = LNCaP95 cells, Compound A 25 uM
[10] = absence of androgen, with BEZ-235
[11] = in response to androgen, Compound A 35 uM
[12] = harvested tumors, Compound A 100 mg/kg, BEZ-235 5 mg/kg

AR-NTD transactivation induced by IL-6 [3]: significantly inhibited
BEZ-235-increased PSA-, ARR3- and PB-luciferase activities [8]: blocked
Structure (SMILES): CC(C)(c1ccc(OC[C@H](O)CO)cc1)c1ccc(OC[C@H](O)CCl)cc1 [Compound A]
expression of UBE2C [1, 9]: markedly reduced
pS6 levels [1, 9]: reduced
levels of FKBP5 ([1]; LNCaP95 cells, presence of androgen (R1881 1 nM), Compound A 25 uM): no effect
BEZ-235-increased protein levels of FL-AR, AR-V7 and PSA [1]: at least in part attenuated
androgen-induced FKBP5 [2]: poor inhibitor
androgen-induced levels of PSA [2]: comparable to enzalutamide
transcript levels of AR-V7 target genes (UBE2C, CDC20, Akt1) ([4]; absence of androgen): consistently reduced
BEZ-235-induced increase in transcript levels of AR-V7 [4, 10]: blocked
BEZ-235-induced levels of PSA transcript [4, 10]: blocked
expression of FKBP5 [4, 11]: inhibited
expression of KLK3 [4, 11]: inhibited
expression of TMPRSS2 [4, 11]: inhibited
UBE2C levels ([4]; monotherapy, regardless of androgen): attenuated
proliferation (BrdU incorporation) [5]: inhibited
levels of p4EBP1 ([6]; harvested tumors, normalized to total 4EBP1): no significant change
levels of pAkt ([6]; harvested tumors, normalized to total Akt): no significant change
protein levels of UBE2C [6, 12]: reduced
protein levels of pS6 [6, 12]: reduced
protein levels of FKBP5 ([6]; in vivo, monotherapies): reduced
apoptosis (TUNEL staining) [7]: increased
proliferation (Ki67 staining) [7]: significantly decreased
UBE2C staining ([7]; immunohistochemistry): reduced
pS6 staining ([7]; immunohistochemistry): reduced

Structure (SMILES): CNC(=O)c1ccc(N2C(=S)N(c3ccc(C#N)c(C(F)(F)F)c3)C(=O)C2(C)C)cc1F [enzalutamide, 4-(3-(4-cyano-3-(trifluoromethyl)phenyl)-5,5-dimethyl-4-oxo-2-thioxoimidazolidin-1-yl)-2-fluoro-N-methylbenzamide]
expression of UBE2C [1, 9]: not
pS6 levels [1, 9]: decreased
BEZ-235-increased protein levels of FL-AR, AR-V7 and PSA [1]: at least in part attenuated
androgen-induced levels of PSA [2]: blocking

Structure (SMILES): CO[C@H]1C[C@@H]2CC[C@@H](C)[C@@](O)(O2)C(=O)C(=O)N2CCCC[C@H]2C(=O)O[C@H]([C@H](C)C[C@@H]2CC[C@@H](OCCO)[C@H](OC)C2)CC(=O)[C@H](C)/C=C(\C)[C@@H](O)[C@@H](OC)C(=O)[C@H](C)C[C@H](C)/C=C/C=C/C=C/1C [everolimus]
pAkt ([1]; LNCaP95 cells, BEZ-235 15 nM, everolimus): without decreasing
levels of UBE2C ([1]; LNCaP95 cells, absence of androgen, everolimus): reduced
protein levels of FL-AR ([1]; LNCaP95 cells, titration experiments): increased
pS6 ribosomal protein ([1]; LNCaP95 cells, titration, BEZ-235 15 nM, everolimus 10 nM): reduced
proliferation (BrdU incorporation) [5]: inhibited
